# Target: Ustilago maydis K53R ACC (Mycosarcoma maydis, UniProt A0A0D1DYD5, K53R)
# Test: biochemical
# Type: biochemical
smiles,measurement,value
"CC[N+](CC)(CCCCN(Cc1cc(C)cc(C)c1)Cc1cc(C)cc(C)c1)Cc1cc(C)cc(C)c1.[Br-] [Compound 28, Diethyl(3,5-dimethylbenzyl)[bis-(3,5-dimethylbenzyl)aminobutyl]ammonium formate]",IC50,52 µM

# Reference: patent US20080200461A1, “MODULATORS OF ACETYL-COENZYME A CARBOXYLASE AND METHODS OF USE THEREOF” (Cropsolution, Inc., priority 2007, published 2008)
